“And” between values parts separate entries of the source, which are not always exact repeats. Equal values may be shown once. Read-outs that look alike come from different tables or passages of the source. Positions of bridges follow the written chain, without caps; N, C: chain ends. Residues, ends and D or L forms follow the SMILES beside them.
Target: T1, SARS-CoV-2 Spike A (wild-type) (Severe acute respiratory syndrome coronavirus 2, UniProt P0DTC2)
T1 construct: purchased Meso Scale Diagnostics, LLC V-PLEX SARS-CoV-2 Panel 13 (ACE2) Kit / Panel 23 (ACE2) Kit
Assay: MSD ACE2 competition assay (inhibition of Spike binding with ACE2, ECL), A (wild-type)

[1] = IC50 Wild Type, Wild Type Spike

| Structure (SMILES) | IC50 [1] | also measured |
| --- | --- | --- |
| CC[C@H](C)[C@H](NC(C)=O)C(=O)N[C@@H](CC(C)C)C(=O)N[C@@H](CCC(N)=O)C(=O)N[C@@H](CCCCN)C(=O)N[C@H](C(=O)N[C@@H](Cc1ccc(O)cc1)C(=O)N[C@@H](CCC(=O)O)C(=O)N[C@H](C(=O)N[C@@H](CCSC)C(=O)N[C@@H](CCCNC(=N)N)C(=O)N[C@@H](CC(C)C)C(=O)N[C@H]1CSSC[C@@H](C(=O)N[C@@H](CCSC)C(=O)N[C@@H](CCCNC(=N)N)C(=O)N[C@H](C(=O)N[C@@H](CO)C(=O)N[C@@H](CC(=O)O)C(=O)N[C@@H](CC(C)C)C(=O)N[C@H](C(=O)N[C@@H](Cc2ccc(O)cc2)C(=O)N[C@@H](CCC(=O)O)C(=O)N[C@@H](Cc2ccccc2)C(=O)N[C@@H](CCSC)C(=O)N[C@@H](CCCCN)C(=O)N[C@@H](CCCCN)C(=O)NCC(N)=O)[C@@H](C)CC)C(C)C)NC(=O)[C@H](C)NC(=O)[C@H](CCC(=O)O)NC(=O)[C@H](C)NC(=O)[C@H](Cc2c[nH]cn2)NC(=O)CNC(=O)[C@H](CC(C)C)NC(=O)[C@H](CCC(=O)O)NC(=O)[C@H](CC(=O)O)NC1=O)[C@@H](C)CC)[C@@H](C)CC [Compound 180] (Ac-ILQKIYEIMRLCDELGHAEACMRVSDLIYEFMKKG-NH2; disulfide 12-21) | 137 nM | – |
| CC[C@H](C)[C@H](NC(C)=O)C(=O)N[C@@H](CC(C)C)C(=O)N[C@@H](CCC(N)=O)C(=O)N[C@@H](CCCCN)C(=O)N[C@H](C(=O)N[C@@H](Cc1ccc(O)cc1)C(=O)N[C@@H](CCC(=O)O)C(=O)N[C@H](C(=O)N[C@H]1CSSC[C@@H](C(=O)N[C@@H](CO)C(=O)N[C@@H](CC(=O)O)C(=O)N[C@@H](CC(C)C)C(=O)N[C@H](C(=O)N[C@@H](Cc2ccc(O)cc2)C(=O)N[C@@H](CCC(=O)O)C(=O)N[C@@H](Cc2ccccc2)C(=O)N[C@@H](CCSC)C(=O)N[C@@H](CCCCN)C(=O)N[C@@H](CCCCN)C(=O)NCC(=O)O)[C@@H](C)CC)NC(=O)[C@H](CCCNC(=N)N)NC(=O)[C@H](CCSC)NC(=O)[C@H](CO)NC(=O)[C@H](C)NC(=O)[C@H](CCC(=O)O)NC(=O)[C@H](C)NC(=O)[C@H](Cc2cnc[nH]2)NC(=O)CNC(=O)[C@H](CC(C)C)NC(=O)[C@H](CCC(=O)O)NC(=O)[C@H](CC(=O)O)NC(=O)[C@H](CC(C)C)NC(=O)[C@H](CC(C)C)NC(=O)[C@H](CCCNC(=N)N)NC1=O)[C@@H](C)CC)[C@@H](C)CC [Compound 135] (Ac-ILQKIYEICRLLDELGHAEASMRCSDLIYEFMKKG-OH; disulfide 9-24) | 12.2 nM | – |
| CC[C@H](C)[C@H](NC(=O)[C@H](CC(C)C)NC(=O)[C@H](CC(=O)O)NC(=O)[C@H](CO)NC(=O)[C@@H](NC(=O)[C@H](CCCNC(=N)N)NC(=O)[C@H](CCSC)NC(=O)[C@H](CO)NC(=O)[C@H](C)NC(=O)[C@H](CCC(=O)O)NC(=O)[C@H](C)NC(=O)[C@H](Cc1c[nH]cn1)NC(=O)CNC(=O)[C@H](CC(C)C)NC(=O)[C@H](CCC(=O)O)NC(=O)[C@H](CC(=O)O)NC(=O)[C@H](CC(C)C)NC(=O)[C@H](CC(C)C)NC(=O)[C@H](CCCNC(=N)N)NC(=O)[C@H](CCSC)NC(=O)[C@@H](NC(=O)[C@H](CCC(=O)O)NC(=O)[C@H](Cc1ccc(O)cc1)NC(=O)[C@@H](NC(=O)[C@H](CCCCN)NC(=O)[C@H](CCC(N)=O)NC(=O)[C@H](CC(C)C)NC(=O)[C@@H](NC(=O)[C@H](Cc1c[nH]c2ccccc12)NC(=O)[C@H](CCC(=O)O)NC(=O)[C@H](CCCCN)NC(=O)[C@@H](N)CC(=O)O)[C@@H](C)CC)[C@@H](C)CC)[C@@H](C)CC)C(C)C)C(=O)N[C@@H](Cc1ccc(O)cc1)C(=O)N[C@@H](CCC(=O)O)C(=O)N[C@@H](Cc1ccccc1)C(=O)N[C@@H](CCSC)C(=O)N[C@@H](CCCCN)C(=O)N[C@@H](CCCCN)C(=O)NCC(=O)O [Compound 102] | 5.96 nM | – |
| CC[C@H](C)[C@H](NC(=O)[C@H](CC(C)C)NC(=O)[C@H](CC(=O)O)NC(=O)[C@H](CO)NC(=O)[C@@H]1CSSC[C@H](NC(=O)[C@@H](NC(=O)[C@H](CCC(=O)O)NC(=O)[C@H](Cc2ccc(O)cc2)NC(=O)[C@@H](NC(=O)[C@H](CCCCN)NC(=O)[C@H](CCC(N)=O)NC(=O)[C@H](CC(C)C)NC(=O)[C@@H](NC(=O)[C@H](Cc2c[nH]c3ccccc23)NC(=O)[C@H](CCC(=O)O)NC(=O)[C@H](CCCCN)NC(=O)[C@H](CC(=O)O)NC(C)=O)[C@@H](C)CC)[C@@H](C)CC)[C@@H](C)CC)C(=O)N[C@@H](CCCNC(=N)N)C(=O)N[C@@H](CC(C)C)C(=O)N[C@@H](CC(C)C)C(=O)N[C@@H](CC(=O)O)C(=O)N[C@@H](CCC(=O)O)C(=O)N[C@@H](CC(C)C)C(=O)NCC(=O)N[C@@H](Cc2cnc[nH]2)C(=O)N[C@@H](C)C(=O)N[C@@H](CCC(=O)O)C(=O)N[C@@H](C)C(=O)N[C@@H](CO)C(=O)N[C@@H](CCSC)C(=O)N[C@@H](CCCNC(=N)N)C(=O)N1)C(=O)N[C@@H](Cc1ccc(O)cc1)C(=O)N[C@@H](CCC(=O)O)C(=O)N[C@@H](Cc1ccccc1)C(=O)N[C@@H](CCSC)C(=O)N[C@@H](CCCCN)C(=O)N[C@@H](CCCCN)C(=O)NCC(=O)O [Compound 137] (Ac-DKEWILQKIYEICRLLDELGHAEASMRCSDLIYEFMKKG-OH; disulfide 13-28) | 2.91 nM | – |
| CC[C@H](C)[C@H](NC(=O)[C@H](CC(C)C)NC(=O)[C@H](CC(=O)O)NC(=O)[C@H](CO)NC(=O)[C@@H](NC(=O)[C@H](CCCNC(=N)N)NC(=O)[C@H](CCSC)NC(=O)[C@@H]1CSSC[C@H](NC(=O)[C@H](CC(C)C)NC(=O)[C@H](CCCNC(=N)N)NC(=O)[C@H](CCSC)NC(=O)[C@@H](NC(=O)[C@H](CCC(=O)O)NC(=O)[C@H](Cc2ccc(O)cc2)NC(=O)[C@@H](NC(=O)[C@H](CCCCN)NC(=O)[C@@H](N)CCC(N)=O)[C@@H](C)CC)[C@@H](C)CC)C(=O)N[C@@H](CC(=O)O)C(=O)N[C@@H](CCC(=O)O)C(=O)N[C@@H](CC(C)C)C(=O)NCC(=O)N[C@@H](Cc2c[nH]cn2)C(=O)N[C@@H](C)C(=O)N[C@@H](CCC(=O)O)C(=O)N[C@@H](C)C(=O)N1)C(C)C)C(=O)N[C@@H](Cc1ccc(O)cc1)C(=O)N[C@@H](CCC(=O)O)C(=O)N[C@@H](Cc1ccccc1)C(=O)N[C@@H](CCSC)C(=O)N[C@@H](CCCCN)C(=O)N[C@@H](CCCCN)C(=O)NCC(N)=O [Compound 177] (H-QKIYEIMRLCDELGHAEACMRVSDLIYEFMKKG-NH2; disulfide 10-19) | > 10000 nM | – |
| CC[C@H](C)[C@H](NC(=O)[C@H](CC(C)C)NC(=O)[C@H](CC(=O)O)NC(=O)[C@H](CO)NC(=O)[C@@H](NC(=O)[C@H](CCCNC(=N)N)NC(=O)[C@H](CCSC)NC(=O)[C@@H]1CSSC[C@H](NC(=O)[C@H](CC(C)C)NC(=O)[C@H](CCCNC(=N)N)NC(=O)[C@H](CCSC)NC(=O)[C@@H](NC(=O)[C@H](CCC(=O)O)NC(=O)[C@H](Cc2ccc(O)cc2)NC(=O)[C@@H](NC(=O)[C@H](CCCCN)NC(=O)[C@H](CCC(N)=O)NC(=O)[C@H](CC(C)C)NC(=O)[C@@H](NC(=O)[C@H](Cc2c[nH]c3ccccc23)NC(=O)[C@H](CCC(=O)O)NC(=O)[C@H](CCCCN)NC(=O)[C@H](CC(=O)O)NC(=O)[C@H](CO)NC(C)=O)[C@@H](C)CC)[C@@H](C)CC)[C@@H](C)CC)C(=O)N[C@@H](CC(=O)O)C(=O)N[C@@H](CCC(=O)O)C(=O)N[C@@H](CC(C)C)C(=O)NCC(=O)N[C@@H](Cc2c[nH]cn2)C(=O)N[C@@H](C)C(=O)N[C@@H](CCC(=O)O)C(=O)N[C@@H](C)C(=O)N1)C(C)C)C(=O)N[C@@H](Cc1ccc(O)cc1)C(=O)N[C@@H](CCC(=O)O)C(=O)N[C@@H](Cc1ccccc1)C(=O)N[C@@H](CCSC)C(=O)N[C@@H](CCCCN)C(=O)N[C@@H](CCCCN)C(=O)NCC(N)=O [Compound 176] | – | IC50 (read-out: IC50, Wild Type, Wild Type): 5.02 nM |
| CC[C@H](C)[C@H](NC(=O)[C@H](CCCCN)NC(=O)[C@H](CCC(N)=O)NC(C)=O)C(=O)N[C@@H](Cc1ccc(O)cc1)C(=O)N[C@@H](CCC(=O)O)C(=O)N[C@H](C(=O)N[C@H]1CSSC[C@@H](C(=O)N[C@@H](CO)C(=O)N[C@@H](CC(=O)O)C(=O)N[C@@H](CC(C)C)C(=O)N[C@H](C(=O)N[C@@H](Cc2ccc(O)cc2)C(=O)N[C@@H](CCC(=O)O)C(=O)N[C@@H](Cc2ccccc2)C(=O)N[C@@H](CCSC)C(=O)N[C@@H](CCCCN)C(=O)N[C@@H](CCCCN)C(=O)NCC(=O)O)[C@@H](C)CC)NC(=O)[C@H](CCCNC(=N)N)NC(=O)[C@H](CCSC)NC(=O)[C@H](CO)NC(=O)[C@H](C)NC(=O)[C@H](CCC(=O)O)NC(=O)[C@H](C)NC(=O)[C@H](Cc2cnc[nH]2)NC(=O)CNC(=O)[C@H](CC(C)C)NC(=O)[C@H](CCC(=O)O)NC(=O)[C@H](CC(=O)O)NC(=O)[C@H](CC(C)C)NC(=O)[C@H](CC(C)C)NC(=O)[C@H](CCCNC(=N)N)NC1=O)[C@@H](C)CC [Compound 132] (Ac-QKIYEICRLLDELGHAEASMRCSDLIYEFMKKG-OH; disulfide 7-22) | – | IC50 (read-out: IC50 Wild Type, Wild Type Spike): 5830 nM |
| CC[C@H](C)[C@H](N)C(=O)N[C@@H](CC(C)C)C(=O)N[C@@H](CCC(N)=O)C(=O)N[C@@H](CCCCN)C(=O)N[C@H](C(=O)N[C@@H](Cc1ccc(O)cc1)C(=O)N[C@@H](CCC(=O)O)C(=O)N[C@H](C(=O)N[C@@H](CCSC)C(=O)N[C@@H](CCCNC(=N)N)C(=O)N[C@@H](CC(C)C)C(=O)N[C@H]1CSSC[C@@H](C(=O)N[C@@H](CCSC)C(=O)N[C@@H](CCCNC(=N)N)C(=O)N[C@H](C(=O)N[C@@H](CO)C(=O)N[C@@H](CC(=O)O)C(=O)N[C@@H](CC(C)C)C(=O)N[C@H](C(=O)N[C@@H](Cc2ccc(O)cc2)C(=O)N[C@@H](CCC(=O)O)C(=O)N[C@@H](Cc2ccccc2)C(=O)N[C@@H](CCSC)C(=O)N[C@@H](CCCCN)C(=O)N[C@@H](CCCCN)C(=O)NCC(N)=O)[C@@H](C)CC)C(C)C)NC(=O)[C@H](C)NC(=O)[C@H](CCC(=O)O)NC(=O)[C@H](C)NC(=O)[C@H](Cc2c[nH]cn2)NC(=O)CNC(=O)[C@H](CC(C)C)NC(=O)[C@H](CCC(=O)O)NC(=O)[C@H](CC(=O)O)NC1=O)[C@@H](C)CC)[C@@H](C)CC [Compound 179] (H-ILQKIYEIMRLCDELGHAEACMRVSDLIYEFMKKG-NH2; disulfide 12-21) | 152 nM and 168 nM | – |

Reference: patent US20260306644A1, “ANTIBODY RECRUITING MOLECULES FOR THE TREATMENT OF CORONAVIRUS DISEASE-19” (priority 2023, published 2026)
